# According to patent US10456407B2, “Combination therapy for treating cancer” (Epizyme, Inc., priority 2015, dated 2019):
# Where “and” joins values, the source holds several entries; their conditions need not be identical. Equal values may be shown once.
# Tested on: DOHH2 cells
# Test: RT2 Glucocorticoid signaling PCR array, DOHH2 cell line (Table 4b)
# Assay type: cell-based
# Conditions: DOHH2, 4 days
structure (smiles),measurement,setting,value
CCN(c1cc(-c2ccc(CN3CCOCC3)cc2)cc(C(=O)NCc2c(C)cc(C)[nH]c2=O)c1C)C1CCOCC1 [Compound 44],ACTB Ct Values,,14.519
same,ADARB1 Ct Values,,31.431
same,AFF1 Ct Values,,23.888
same,AK2 Ct Values,,20.173
same,AMPD3 Ct Values,,26.146
same,ANGPTL4 Ct Values,,30.820
same,ANXA4 Ct Values,,24.273
same,ARID68 Ct Values,,23.782
same,ASPH Ct Values,,22.823
same,ATF4 Ct Values,,19.190
same,B2M Ct Values,,18.576
same,BCL6 Ct Values,,21.323
same,BMPER Ct Values,,39.092
same,CALCR Ct Values,,33.360
same,CEBPA Ct Values,,30.676
same,CEBPB Ct Values,,23.925
same,COL4A2 Ct Values,,34.119
same,CREB1 Ct Values,,22.746
same,CREB3 Ct Values,,24.840
same,CREB3L4 Ct Values,,24.110
same,CTGF Ct Values,,32.760
same,CYB561 Ct Values,,31.945
same,DDIT4 Ct Values,,23.508
same,DUSP1 Ct Values,,27.132
same,EDN1 Ct Values,,32.260
same,EHD3 Ct Values,,28.852
same,ERRFI1 Ct Values,,30.163
same,FK8PS Ct Values,,21.520
same,FOSL2 Ct Values,,29.872
same,GAPDH Ct Values,,16.197
same,GDPD1 Ct Values,,27.570
same,GHRHR Ct Values,,39.644
same,GLUL Ct Values,,36.671
same,GOT1 Ct Values,,23.126
same,H6PD Ct Values,,24.377
same,HNRPLL Ct Values,,29.151
same,HPRT1 Ct Values,,21.561
same,IL1RN Ct Values,,32.271
same,IL6R Ct Values,,31.962
same,KLF9 Ct Values,,28.439
same,KLF13 Ct Values,,22.420
same,LOX Ct Values,,32.997
same,MERTK Ct Values,,32.456
same,NFKBIA Ct Values,,22.625
same,NR3C1 Ct Values,,22.430
same,PDCD7 Ct Values,,23.417
same,PDGFRB Ct Values,,35.193
same,PDP1 Ct Values,,25.175
same,PER1 Ct Values,,24.717
same,PER2 Ct Values,,23.835
same,PIK3R1 Ct Values,,23.712
same,PLEKHF1 Ct Values,,28.946
same,POU2F1 Ct Values,,24.003
same,POU2F2 Ct Values,,22.167
same,RASA3 Ct Values,,27.636
same,RGS2 Ct Values,,24.861
same,RHOB Ct Values,,30.745
same,RPLP0 Ct Values,,14.935
same,SESN1 Ct Values,,23.848
same,SGK1 Ct Values,,27.821
same,SLC10A6 Ct Values,,36.435
same,SLC19A2 Ct Values,,24.859
same,SLC22A5 Ct Values,,27.992
same,SNTA1 Ct Values,,24.550
same,SPHK1 Ct Values,,28.863
same,SPSB1 Ct Values,,26.652
same,STAT5A Ct Values,,23.771
same,STAT5B Ct Values,,22.328
same,TBL1XR1 Ct Values,,20.994
same,TNF Ct Values,,31.849
same,TNFAIP3 Ct Values,,27.520
same,TSC22D3 Ct Values,,24.752
same,USP2 Ct Values,,23.684
same,USPS4 Ct Values,,25.892
same,VDR Ct Values,,26.426
same,VLDLR Ct Values,,27.232
same,ZFP36 Ct Values,,23.980
same,ZHX3 Ct Values,,24.611
same,ZNF281 Ct Values,,23.541
same,PPC Ct Values,"array control, three lines",18.672 and 19.142 and 18.711
same,RTC Ct Values,"array control, three lines",21.345 and 21.410 and 21.384
same,ACTB ΔCT (B2M),normalized to B2M,−4.057
same,ADARB1 ΔCT (B2M),normalized to B2M,12.855
same,AFF1 ΔCT (B2M),normalized to B2M,5.312
same,AK2 ΔCT (B2M),normalized to B2M,1.597
same,AMPD3 ΔCT (B2M),normalized to B2M,7.570
same,ANGPTL4 ΔCT (B2M),normalized to B2M,12.244
same,ANXA4 ΔCT (B2M),normalized to B2M,5.697
same,ASPH ΔCT (B2M),normalized to B2M,4.247
same,ATF4 ΔCT (B2M),normalized to B2M,0.614
same,B2M ΔCT (B2M),normalized to B2M,0.000
same,BCL6 ΔCT (B2M),normalized to B2M,2.747
same,BMPER ΔCT (B2M),normalized to B2M,20.516
same,CALCR ΔCT (B2M),normalized to B2M,15.054
same,CEBPA ΔCT (B2M),normalized to B2M,12.100
same,CEBPB ΔCT (B2M),normalized to B2M,5.349
same,COL4A2 ΔCT (B2M),normalized to B2M,15.543
same,CREB1 ΔCT (B2M),normalized to B2M,4.170
same,CREB3L4 ΔCT (B2M),normalized to B2M,5.534
same,CREB3 ΔCT (B2M),normalized to B2M,6.264
same,CTGF ΔCT (B2M),normalized to B2M,14.184
same,CYB561 ΔCT (B2M),normalized to B2M,13.369
same,DDIT4 ΔCT (B2M),normalized to B2M,4.932
same,DUSP1 ΔCT (B2M),normalized to B2M,8.556
same,EDN1 ΔCT (B2M),normalized to B2M,13.684
same,EHD3 ΔCT (B2M),normalized to B2M,10.276
same,ERRFI1 ΔCT (B2M),normalized to B2M,11.587
same,FK8PS ΔCT (B2M),normalized to B2M,2.944
same,FOSL2 ΔCT (B2M),normalized to B2M,11.296
same,GAPDH ΔCT (B2M),normalized to B2M,−2.379
same,GDPD1 ΔCT (B2M),normalized to B2M,8.994
same,GHRHR ΔCT (B2M),normalized to B2M,21.068
same,GLUL ΔCT (B2M),normalized to B2M,18.095
same,GOT1 ΔCT (B2M),normalized to B2M,4.550
same,H6PD ΔCT (B2M),normalized to B2M,5.801
same,HNRPLL ΔCT (B2M),normalized to B2M,10.575
same,HPRT1 ΔCT (B2M),normalized to B2M,2.985
same,IL1RN ΔCT (B2M),normalized to B2M,13.695
same,IL6R ΔCT (B2M),normalized to B2M,13.386
same,IL6 ΔCT (B2M),normalized to B2M,15.874
same,KLF9 ΔCT (B2M),normalized to B2M,9.863
same,KLF13 ΔCT (B2M),normalized to B2M,3.844
same,LOX ΔCT (B2M),normalized to B2M,14.421
same,MERTK ΔCT (B2M),normalized to B2M,13.880
same,NFKBIA ΔCT (B2M),normalized to B2M,4.049
same,NR3C1 ΔCT (B2M),normalized to B2M,3.854
same,PDCD7 ΔCT (B2M),normalized to B2M,4.841
same,PDGFRB ΔCT (B2M),normalized to B2M,16.617
same,PDP1 ΔCT (B2M),normalized to B2M,6.599
same,PER1 ΔCT (B2M),normalized to B2M,6.141
same,PER2 ΔCT (B2M),normalized to B2M,5.259
same,PIK3R1 ΔCT (B2M),normalized to B2M,5.136
same,PLEKHF1 ΔCT (B2M),normalized to B2M,10.370
same,POU2F1 ΔCT (B2M),normalized to B2M,5.427
same,POU2F2 ΔCT (B2M),normalized to B2M,3.591
same,RASA3 ΔCT (B2M),normalized to B2M,9.060
same,RGS2 ΔCT (B2M),normalized to B2M,6.285
same,RHOB ΔCT (B2M),normalized to B2M,12.169
same,RPLP0 ΔCT (B2M),normalized to B2M,−3.641
same,SESN1 ΔCT (B2M),normalized to B2M,5.272
same,SGK1 ΔCT (B2M),normalized to B2M,9.245
same,SLC10A6 ΔCT (B2M),normalized to B2M,17.859
same,SLC19A2 ΔCT (B2M),normalized to B2M,6.283
same,SLC22A5 ΔCT (B2M),normalized to B2M,9.416
same,SNTA1 ΔCT (B2M),normalized to B2M,5.974
same,SPHK1 ΔCT (B2M),normalized to B2M,10.287
same,SPSB1 ΔCT (B2M),normalized to B2M,8.076
same,STAT5A ΔCT (B2M),normalized to B2M,5.195
same,STAT5B ΔCT (B2M),normalized to B2M,3.752
same,TBL1XR1 ΔCT (B2M),normalized to B2M,2.415
same,TNF ΔCT (B2M),normalized to B2M,13.273
same,TNFAIP3 ΔCT (B2M),normalized to B2M,8.944
same,TSC22D3 ΔCT (B2M),normalized to B2M,6.176
same,USP2 ΔCT (B2M),normalized to B2M,5.108
same,USPS4 ΔCT (B2M),normalized to B2M,7.316
same,VDR ΔCT (B2M),normalized to B2M,7.850
same,VLDLR ΔCT (B2M),normalized to B2M,8.656
same,ZFP36 ΔCT (B2M),normalized to B2M,5.404
same,ZHX3 ΔCT (B2M),normalized to B2M,6.035
same,ZNF281 ΔCT (B2M),normalized to B2M,4.965
same,RTC ΔCT (B2M),"normalized to B2M, array control, three lines",2.769 and 2.834 and 2.808
same,ADARB1 ΔΔCT,vs DMSO,0.046
same,AFF1 ΔΔCT,vs DMSO,−0.363
same,AK2 ΔΔCT,vs DMSO,0.272
same,AMPD3 ΔΔCT,vs DMSO,0.178
same,ANGPTL4 ΔΔCT,vs DMSO,0.119
same,ANXA4 ΔΔCT,vs DMSO,−0.111
same,ARID68 ΔΔCT,vs DMSO,0.334
same,ASPH ΔΔCT,vs DMSO,0.286
same,ATF4 ΔΔCT,vs DMSO,0.467
same,BCL6 ΔΔCT,vs DMSO,0.227
same,BMPER ΔΔCT,vs DMSO,1.488
same,CEBPA ΔΔCT,vs DMSO,−3.545
same,CEBPB ΔΔCT,vs DMSO,0.447
same,COL4A2 ΔΔCT,vs DMSO,2.238
same,CREB1 ΔΔCT,vs DMSO,0.249
same,CREB3L4 ΔΔCT,vs DMSO,0.138
same,CREB3 ΔΔCT,vs DMSO,0.344
same,CTGF ΔΔCT,vs DMSO,−0.518
same,CYB561 ΔΔCT,vs DMSO,−5.412
same,DDIT4 ΔΔCT,vs DMSO,0.007
same,DUSP1 ΔΔCT,vs DMSO,−0.039
same,EDN1 ΔΔCT,vs DMSO,1.460
same,EHD3 ΔΔCT,vs DMSO,−3.030
same,ERRFI1 ΔΔCT,vs DMSO,−1.929
same,FK8PS ΔΔCT,vs DMSO,−3.032
same,FOSL2 ΔΔCT,vs DMSO,−1.462
same,GDPD1 ΔΔCT,vs DMSO,0.471
same,GHRHR ΔΔCT,vs DMSO,2.393
same,GLUL ΔΔCT,vs DMSO,0.971
same,GOT1 ΔΔCT,vs DMSO,0.132
same,H6PD ΔΔCT,vs DMSO,0.093
same,HNRPLL ΔΔCT,vs DMSO,−0.740
same,KLF9 ΔΔCT,vs DMSO,0.181
same,KLF13 ΔΔCT,vs DMSO,−0.098
same,LOX ΔΔCT,vs DMSO,−0.132
same,MERTK ΔΔCT,vs DMSO,−0.108
same,NFKBIA ΔΔCT,vs DMSO,0.167
same,NR3C1 ΔΔCT,vs DMSO,0.261
same,PDCD7 ΔΔCT,vs DMSO,0.194
same,PDP1 ΔΔCT,vs DMSO,−0.255
same,PER1 ΔΔCT,vs DMSO,0.206
same,PER2 ΔΔCT,vs DMSO,−0.374
same,PIK3R1 ΔΔCT,vs DMSO,−0.032
same,PLEKHF1 ΔΔCT,vs DMSO,−0.507
same,POU2F1 ΔΔCT,vs DMSO,0.058
same,POU2F2 ΔΔCT,vs DMSO,0.131
same,RASA3 ΔΔCT,vs DMSO,0.917
same,RGS2 ΔΔCT,vs DMSO,0.504
same,RHOB ΔΔCT,vs DMSO,−1.483
same,SESN1 ΔΔCT,vs DMSO,0.055
same,SGK1 ΔΔCT,vs DMSO,0.621
same,SLC19A2 ΔΔCT,vs DMSO,−0.308
same,SLC22A5 ΔΔCT,vs DMSO,0.033
same,SNTA1 ΔΔCT,vs DMSO,0.399
same,SPHK1 ΔΔCT,vs DMSO,−1.381
same,SPSB1 ΔΔCT,vs DMSO,0.025
same,STAT5A ΔΔCT,vs DMSO,−0.033
same,STAT5B ΔΔCT,vs DMSO,0.258
same,TBL1XR1 ΔΔCT,vs DMSO,0.030
same,TNF ΔΔCT,vs DMSO,0.954
same,TNFAIP3 ΔΔCT,vs DMSO,−0.307
same,TSC22D3 ΔΔCT,vs DMSO,0.009
same,USP2 ΔΔCT,vs DMSO,0.013
same,USPS4 ΔΔCT,vs DMSO,−0.274
same,VDR ΔΔCT,vs DMSO,−0.547
same,VLDLR ΔΔCT,vs DMSO,0.499
same,ZFP36 ΔΔCT,vs DMSO,0.243
same,ZHX3 ΔΔCT,vs DMSO,−0.156
same,ZNF281 ΔΔCT,vs DMSO,−0.092
